Assay [1] addresses T1, SIRT1 (Homo sapiens, UniProt Q96EB6).
T1 sequence (Q96EB6 1-747): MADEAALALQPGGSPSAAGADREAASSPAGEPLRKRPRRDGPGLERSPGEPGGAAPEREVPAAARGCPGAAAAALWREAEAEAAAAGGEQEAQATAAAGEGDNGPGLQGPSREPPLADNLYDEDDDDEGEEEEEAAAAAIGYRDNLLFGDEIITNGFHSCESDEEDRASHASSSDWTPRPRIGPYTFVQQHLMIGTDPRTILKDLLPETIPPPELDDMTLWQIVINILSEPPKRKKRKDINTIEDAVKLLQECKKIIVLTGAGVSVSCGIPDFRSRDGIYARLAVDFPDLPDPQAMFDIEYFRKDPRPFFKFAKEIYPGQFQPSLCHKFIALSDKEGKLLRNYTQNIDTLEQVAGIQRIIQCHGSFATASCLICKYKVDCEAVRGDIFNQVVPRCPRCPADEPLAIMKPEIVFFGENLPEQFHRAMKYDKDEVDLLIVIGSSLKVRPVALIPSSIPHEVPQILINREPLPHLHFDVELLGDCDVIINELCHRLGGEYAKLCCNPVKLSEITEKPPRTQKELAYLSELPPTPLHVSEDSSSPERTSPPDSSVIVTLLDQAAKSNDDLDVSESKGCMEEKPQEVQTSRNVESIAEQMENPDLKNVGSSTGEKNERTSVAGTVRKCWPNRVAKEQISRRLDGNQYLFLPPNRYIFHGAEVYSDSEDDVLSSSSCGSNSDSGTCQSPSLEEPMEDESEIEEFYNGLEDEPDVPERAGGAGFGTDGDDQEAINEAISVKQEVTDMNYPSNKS
Briefly: TAMRA based mass spectrometry assay of SIRT1 activity. It is filed as biochemical. The note with it: TAMRA assay; for TAMRA EC1.5 (μM): concentration giving 150% activation of SIRT1; for Emax: percent maximum fold activation, read-out: TAMRA % Fold Act. Put shortly: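 Recombinant N-terminal His-tagged human SIRT1 (10 nM, E. coli) incubated 25 min at 25 °C with 0.5 μM 5TMR-labelled p53-derived acetyl-peptide and 120 μM βNAD+ in Tris-acetate pH 8 buffer with DTT and 0.05% BSA, compound at varying concentrations. Stopped with formic acid; deacetylated peptide or OAADPR measured by mass spectrometry relative to DMSO controls.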

Assay [2] deals with T1, SIRT1. Nature of the assay: Trp mass spectrometry assay of SIRT1 activity. To be noted: Trp assay; for Trp EC1.5 (μM): concentration giving 150% activation of SIRT1; for Emax: percent maximum fold activation, read-out: Trp % Fold Act. It is filed as biochemical. Put shortly:
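His-tagged SIRT1 expressed in E. coli BL21(DE3), 10 nM, incubated 25 min at 25° C. with 0.5 μM Ac-RHKK(Ac)W-NH2 peptide and 120 μM βNAD+ in 50 mM HEPES pH 7.5, […], 1 mM DTT, 0.05% BSA; formic acid stop. OAADPR or deacetylated peptide measured by mass spectrometry; EC1.5 and percent maximum activation versus DMSO control.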

Consider `O=C(Nc1cnn2ccc(-c3ccccc3OC(F)(F)F)nc12)c1cc(O)ncn1` [Compound 776], for which, in assay [1], the “TAMRA EC1.5 (μM)” value is recorded as “B (EC1.5 1-25 μM)” and the Emax was at least 350%. In addition, in assay [2], the “Trp EC1.5 (μM)” value is reported as “C (EC1.5>25 μM)” and the Emax was below 350%.

On to `COc1cc(NC(=O)c2c(C)nn3ccc(-c4ccccc4C(F)(F)F)nc23)ncn1` [Compound 778], for which, in assay [1], the “TAMRA EC1.5 (μM)” value is listed as “A (EC1.5<1 μM)” and the Emax was at least 350%. In assay [2], the “Trp EC1.5 (μM)” value is listed as “A (EC1.5<1 μM)” and the Emax was below 350%.

With `O=C(Nc1ccnc(O)c1)c1cnn2ccc(-c3ccccc3OC(F)(F)F)nc12` [Compound 779], in assay [1], the “TAMRA EC1.5 (μM)” value is “A (EC1.5<1 μM)” and the Emax was at least 350%. Besides, in assay [2], the “Trp EC1.5 (μM)” value was “A (EC1.5<1 μM)” and the Emax is at least 350%.

For the compound `Cc1cnc(C(=O)Nc2cnn3ccc(-c4ccccc4OC(F)(F)F)nc23)s1` [Compound 782], in assay [1], the “TAMRA EC1.5 (μM)” value is listed as “A (EC1.5<1 μM)” and the Emax was at least 350%. Besides, in assay [2], the “Trp EC1.5 (μM)” value is “C (EC1.5>25 μM)” and the Emax is below 350%.

For `Cc1nn2ccc(-c3ccccc3C(F)(F)F)nc2c1C(=O)Nc1ccnc(O)c1` [Compound 784], in assay [1], the “TAMRA EC1.5 (μM)” value was “A (EC1.5<1 μM)” and the Emax was at least 350%. Also, in assay [2], the “Trp EC1.5 (μM)” value is on record as “A (EC1.5<1 μM)” and the Emax is at least 350%.

Regarding `O=C(Nc1cnn2ccc(-c3ccccc3OC(F)(F)F)nc12)c1cscn1` [Compound 785], in assay [1], the “TAMRA EC1.5 (μM)” value is listed as “B (EC1.5 1-25 μM)” and the Emax is at least 350%. In assay [2], the “Trp EC1.5 (μM)” value is reported as “C (EC1.5>25 μM)” and the Emax is below 350%.

Turning to `Cc1nn2ccc(-c3ccccc3C(F)(F)F)nc2c1C(=O)Nc1ncc(F)cc1F` [Compound 788], in assay [1], the “TAMRA EC1.5 (μM)” value is listed as “B (EC1.5 1-25 μM)” and the Emax was at least 350%. In assay [2], the “Trp EC1.5 (μM)” value was “B (EC1.5 1-25 μM)” and the Emax was at least 350%.

On to `Cc1cccc(NC(=O)c2c(C)nc3ccc(-c4cccc(OC[C@H](O)CO)c4)nn23)n1` [Compound 790], for which, in assay [1], the “TAMRA EC1.5 (μM)” value is “A (EC1.5<1 μM)” and the Emax is at least 350%. Further, in assay [2], the “Trp EC1.5 (μM)” value is on record as “A (EC1.5<1 μM)” and the Emax is at least 350%.

Take `Cc1cc(C)nc(NC(=O)c2c(C)nc3ccc(-c4cccc(OC[C@H](O)CO)c4)nn23)c1` [Compound 791]: in assay [1], the “TAMRA EC1.5 (μM)” value was “A (EC1.5<1 μM)” and the Emax is at least 350%. In assay [2], the “Trp EC1.5 (μM)” value is given as “B (EC1.5 1-25 μM)” and the Emax was below 350%.

As for `Cc1nccc(C(=O)Nc2cnn3ccc(-c4ccccc4C(F)(F)F)nc23)n1` [Compound 794], in assay [1], the “TAMRA EC1.5 (μM)” value is reported as “A (EC1.5<1 μM)” and the Emax is at least 350%. Besides, in assay [2], the “Trp EC1.5 (μM)” value is “B (EC1.5 1-25 μM)” and the Emax was below 350%.

Consider `CC(C)c1nccc(C(=O)Nc2cnn3ccc(-c4ccccc4C(F)(F)F)nc23)n1` [Compound 796], for which, in assay [1], the “TAMRA EC1.5 (μM)” value is given as “A (EC1.5<1 μM)” and the Emax is at least 350%. Further, in assay [2], the “Trp EC1.5 (μM)” value was “B (EC1.5 1-25 μM)” and the Emax is below 350%.

`COc1nccc(NC(=O)c2cnn3ccc(-c4ccccc4OC(F)(F)F)nc23)n1` [Compound 797]: in assay [1], the “TAMRA EC1.5 (μM)” value was “A (EC1.5<1 μM)” and the Emax was at least 350%. In addition, in assay [2], the “Trp EC1.5 (μM)” value is “A (EC1.5<1 μM)” and the Emax was at least 350%.

In the case of `Cc1cnc(C(=O)Nc2cnn3ccc(-c4ccccc4C(F)(F)F)nc23)cn1` [Compound 800], in assay [1], the “TAMRA EC1.5 (μM)” value is “B (EC1.5 1-25 μM)” and the Emax was at least 350%. Further, in assay [2], the “Trp EC1.5 (μM)” value is “C (EC1.5>25 μM)” and the Emax was below 350%.

For the compound `O=C(Nc1cnn2ccc(-c3ccccc3C(F)(F)F)nc12)c1cscn1` [Compound 802], in assay [1], the “TAMRA EC1.5 (μM)” value was “B (EC1.5 1-25 μM)” and the Emax is at least 350%. Moreover, in assay [2], the “Trp EC1.5 (μM)” value was “C (EC1.5>25 μM)” and the Emax is below 350%.

As to `Cc1scnc1C(=O)Nc1cnn2ccc(-c3ccccc3C(F)(F)F)nc12` [Compound 803], in assay [1], the “TAMRA EC1.5 (μM)” value is reported as “B (EC1.5 1-25 μM)” and the Emax is at least 350%. In assay [2], the “Trp EC1.5 (μM)” value is reported as “C (EC1.5>25 μM)” and the Emax is below 350%.

Regarding `Cc1cc(C)nc(NC(=O)c2cnn3ccc(-c4ccccc4C(F)(F)F)nc23)n1` [Compound 806], in assay [1], the “TAMRA EC1.5 (μM)” value is recorded as “A (EC1.5<1 μM)” and the Emax is at least 350%. Besides, in assay [2], the “Trp EC1.5 (μM)” value is listed as “B (EC1.5 1-25 μM)” and the Emax was at least 350%.

Turning to `CC(C)c1csc(C(=O)Nc2cnn3ccc(-c4ccccc4C(F)(F)F)nc23)n1` [Compound 808], in assay [1], the “TAMRA EC1.5 (μM)” value is listed as “A (EC1.5<1 μM)” and the Emax was at least 350%. In assay [2], the “Trp EC1.5 (μM)” value is “B (EC1.5 1-25 μM)” and the Emax was below 350%.

`O=C(Nc1cnn2ccc(-c3ccccc3C(F)(F)F)nc12)c1nc(C(F)(F)F)cs1` [Compound 809]: in assay [1], the “TAMRA EC1.5 (μM)” value is recorded as “A (EC1.5<1 μM)” and the Emax is at least 350%. In assay [2], the “Trp EC1.5 (μM)” value is “C (EC1.5>25 μM)” and the Emax was below 350%.

For the compound `O=C(Nc1ccccn1)c1cnc2ccc(-c3ccccc3OC[C@H](O)CO)nn12` [Compound 812], in assay [1], the “TAMRA EC1.5 (μM)” value was “A (EC1.5<1 μM)” and the Emax was at least 350%. In assay [2], the “Trp EC1.5 (μM)” value is recorded as “A (EC1.5<1 μM)” and the Emax is at least 350%.

Regarding `O=C(Nc1ccc(F)cn1)c1cnc2ccc(-c3ccccc3OC[C@H](O)CO)nn12` [Compound 814], in assay [1], the “TAMRA EC1.5 (μM)” value was “B (EC1.5 1-25 μM)” and the Emax was at least 350%. In assay [2], the “Trp EC1.5 (μM)” value is “B (EC1.5 1-25 μM)” and the Emax is below 350%.

On to `Cc1nc2ccc(-c3ccccc3OC[C@H](O)CO)nn2c1C(=O)Nc1ccccn1` [Compound 815, (R)-6-(2-(2,3-dihydroxypropoxy)phenyl)-2-methyl-N-(pyridin-2-yl)imidazo[1,2-b]pyridazine-3-carboxamide], for which, in assay [1], the “TAMRA EC1.5 (μM)” value is listed as “A (EC1.5<1 μM)” and the Emax is at least 350%. Further, in assay [2], the “Trp EC1.5 (μM)” value is “A (EC1.5<1 μM)” and the Emax is at least 350%.

Regarding `Cc1cccc(NC(=O)c2c(C)nc3ccc(-c4ccccc4OC[C@H](O)CO)nn23)n1` [Compound 816], in assay [1], the “TAMRA EC1.5 (μM)” value is “A (EC1.5<1 μM)” and the Emax was at least 350%. Also, in assay [2], the “Trp EC1.5 (μM)” value is “A (EC1.5<1 μM)” and the Emax was at least 350%.

Regarding `Cc1cc(NC(=O)c2c(C)nc3ccc(-c4ccccc4OC[C@H](O)CO)nn23)nc(C)n1` [Compound 818], in assay [1], the “TAMRA EC1.5 (μM)” value was “A (EC1.5<1 μM)” and the Emax is at least 350%. In assay [2], the “Trp EC1.5 (μM)” value was “B (EC1.5 1-25 μM)” and the Emax was below 350%.

For the compound `Cc1cnc(NC(=O)c2cnc3ccc(-c4ccccc4OC[C@H](O)CO)nn23)s1` [Compound 820], in assay [1], the “TAMRA EC1.5 (μM)” value is given as “B (EC1.5 1-25 μM)” and the Emax is at least 350%. In addition, in assay [2], the “Trp EC1.5 (μM)” value is given as “B (EC1.5 1-25 μM)” and the Emax is below 350%.

In the case of `Cc1nc2ccc(-c3cccc(OC[C@H](O)CO)c3)nn2c1C(=O)Nc1ccc(F)cn1` [Compound 821], in assay [1], the “TAMRA EC1.5 (μM)” value is “B (EC1.5 1-25 μM)” and the Emax is below 350%. For the same compound, in assay [2], the “Trp EC1.5 (μM)” value is on record as “A (EC1.5<1 μM)” and the Emax was below 350%.

The values are drawn from patent publication US9957271B2, “Substituted bicyclic aza-heterocycles and analogues as sirtuin modulators” (GlaxoSmithKline, LLC, priority 2012, dated 2018).
